# Results as given in patent publication US20250388551A1, “COMPOUNDS INDUCING PRODUCTION OF PROTEINS BY IMMUNE CELLS” (UNIVERSITE PARIS CITE, priority 2022, published 2025).
# Tested on: mouse B cell subsets (CD19+, follicular, marginal zone, blood B cells)
# Assay: IL-10 expression, IL-10 secretion and plasma cell generation in B cell subsets, CpG-based culture
# Details: 0.25 μM, 3 days
# Text: Resting mouse B cells were isolated from spleen by magnetic depletion of CD43^+ cells and total CD19^+ B cells, follicular B cells (CD19^+/CD21^low/−/CD23^high/CD1d^low) and marginal zone B cells (CD19^+/CD21^high/CD23^low/−/CD1d^hi) were purified by FACS. Total CD19^+ blood B cells were directly purified by FACS after red blood cell lysis. […] Generation of B220^low/CD138^high plasma cells was also quantified by flow cytometry. Data are presented as mean±SD. n≥3 independent experiments.
row,SMILES,differentiation of B cells into plasma cells (B220low/CD138high)
1,CC(=O)Nc1ccc(C(=O)Nc2ccc(-c3nc4cc(NC(=O)c5ccc(NC(C)=O)cc5)ccc4[nH]3)cc2)cc1 [Compound C3],increase

# Same assay, conditions: 0.25 μM, 3 days, cell-free supernatants
row,SMILES,amount of IL-10 produced by stimulated B cells
1,CC(=O)Nc1ccc(C(=O)Nc2ccc(-c3nc4cc(NC(=O)c5ccc(NC(C)=O)cc5)ccc4[nH]3)cc2)cc1 [Compound C3],increase

# Same assay, conditions: 0.25 μM, 3 days, flow cytometry
row,SMILES,proportion of activated B cells expressing IL-10
1,CC(=O)Nc1ccc(C(=O)Nc2ccc(-c3nc4cc(NC(=O)c5ccc(NC(C)=O)cc5)ccc4[nH]3)cc2)cc1 [Compound C3],increase

# Tested on: resting mouse B cells
# Assay: IL-10 expression in TLR-, CD40- and BCR-stimulated B cells by flow cytometry
# Format: cell-based
# Details: 0.25 μM, stimulation through TLR4, TLR7/8, TLR9, CD40, IgM, 72 hours
# Method: Resting mouse B cells were isolated from spleen by magnetic depletion of CD43^+ cells and stimulated through TLR4, TLR7/8, TLR9, CD40, and IgM as indicated for 3 consecutive days. Cell culture medium was supplemented with DMSO-vehicle control, C3 or N6 at 0.25 μM. B cells from C57BL/6 mice were used to determine autofluorescence in eGFP channel and IL-10.eGFP-IL-6.tdTomato mice were used to monitor IL-10 expression by flow cytometry at 72 hours. The percentage of viable/singlets/CD19^+/IL-10^+ cells is shown. Data are presented as mean±SD. n≥3 independent experiments.
row,SMILES,IL-10 expression in B cells (percentage of IL-10+ cells)
1,CC(=O)Nc1ccc(C(=O)Nc2ccc(-c3nc4cc(NC(=O)c5ccc(NC(C)=O)cc5)ccc4[nH]3)cc2)cc1 [Compound C3],increase IL-10 expression in B cells across a broad range of stimulation protocols

# Tested on: resting mouse B cells
# Assay: Il10 mRNA expression in B cells (quantitative RT-PCR)
# Format: cell-based
# Details: 0.25 μM
# Method: Resting mouse B cells were isolated from spleen by magnetic depletion of CD43^+ cells. B cells were incubated with DMSO-vehicle control or N6 (0.25 μM), as such, or in combination with CpG. mRNA was extracted at different time-points and il10/actin ratio was determined.
# Resting mouse B cells were isolated from spleen by magnetic depletion of CD43^+ cells. B cells were incubated with DMSO vehicle control, or C3 or N6 at 0.25 μM for the indicated time, and Il10 mRNA induction was quantified by quantitative RT-PCR.
row,SMILES,Il10 transcription in unstimulated B cells
1,CC(=O)Nc1ccc(C(=O)Nc2ccc(-c3nc4cc(NC(=O)c5ccc(NC(C)=O)cc5)ccc4[nH]3)cc2)cc1 [Compound C3],Increase Il10 Transcription

# Tested on: resting mouse B cells from spleen of IL-10.eGFP mice
# Assay: High throughput flow cytometry-based phenotypic screen for IL-10 inducers
# Format: cell-based
# Details: 10 μM, LPS, 72 hours
# Method: Resting mouse B cells were isolated from spleen of IL-10.eGFP mice by magnetic depletion of CD43+ cells, and stimulated for 72 hours in 384-well plates in the presence of chemical compounds at 10 μM final. The chemical library originated from the Leibniz-Forschungsinstitut für Molekulare Pharmakologie (FMP) (Berlin, Germany). The frequency of IL-10-expressing B cells was then measured in each well by flow cytometry.
row,SMILES,IL-10 expression in stimulated B cells
1,CC(=O)Nc1ccc(C(=O)Nc2ccc(-c3nc4cc(NC(=O)c5ccc(NC(C)=O)cc5)ccc4[nH]3)cc2)cc1 [Compound C3],markedly increases IL-10 expression

# Tested on: human B cells
# Assay: IL-10 induction in human B cells cultivated with anti-IgM plus CpG
# Format: cell-based
# Details: B-cell, 48 h, 2 days, IL-10 in cell culture supernatants, read-out: IL-10 mean induction fold in human B cells treated with compound compared to DMSO control
# Method: Human B cells isolated magnetically through negative selection (B Cell Isolation Kit II, human, Miltenyi ref: 130-091-151) were cultivated for 2 consecutive days in the presence of anti-IgM plus CpG in the presence of the indicated molecule (see table 1) at 0.25 μM final concentration, or DMSO as control. IL-10 was measured in cell culture supernatants, and the IL-10 induction fold was calculated for each molecule compared to the DMSO control.
# Human B cells isolated magnetically through negative selection (B Cell Isolation Kit II, human, Miltenyi ref: 130-091-151) were cultivated for 2 consecutive days in the presence of anti-IgM plus CpG in the presence of DMSO (as control) or in the presence of the tested molecule at 0.25 μM final concentration. IL-10 was measured in cell culture supernatants. NS: non stimulated B cell culture condition.
row,SMILES,fold induction at 0.25 µM
1,"O=C(Nc1ccc(-c2nc3ccc(NC(=O)c4ccc(/N=C/c5ccccc5O)cc4)c(Cl)c3[nH]2)cc1)c1ccc(/N=C/c2ccccc2O)cc1 [Compound 22, N-[4-(7-chloro-6-{[(4-{[(E)-(2-hydroxyphenyl)methylidene]amino}phenyl)carbonyl]amino}-1H-benzimidazol-2-yl)phenyl]-4-{[(E)-(2-hydroxyphenyl)methylidene]amino} benzamide]",1.34
2,"CN(C)S(=O)(=O)c1cc(C(=O)Nc2ccc3[nH]c(-c4ccc(F)cc4)nc3c2)ccc1Cl [Compound 4, 4-Chloro-3-[(dimethylamino)sulfonyl]-N-[2-(4-fluorophenyl)-1H-benzimidazol-6-yl]benzamide]",1.49
3,"COc1ccccc1C(=O)Nc1ccc2c(c1)nc1c3ccccc3c(-c3ccc(C)cc3)nn21 [Compound 32, 2-Methoxy-N-[5-(4-methylphenyl)benzimidazo [2,1-a]phthalazin-10-yl]benzamide]",1.42
4,"O=C1CCSc2ccc(C(=O)Nc3ccc4[nH]c(-c5cccc(F)c5)nc4c3)cc2N1 [Compound 58, N-[2-(3-fluorophenyl)-1H-benzimidazol-5-yl]-4-oxo-3,5-dihydro-2H-1,5-benzothiazepine-7-carboxamide]",1.56
5,"COc1ccccc1NC(=O)c1ccc2nc(-c3ccccc3)[nH]c2c1 [Compound 366, N-(2-methoxyphenyl)-2-phenyl-1H-benzo[d]imidazole-6-carboxamide]",1.95
6,"COc1ccccc1C(=O)Nc1ccc2c(c1)nc1c3ccccc3c(C)nn21 [Compound 40, 2-Methoxy-N-(5-methylbenzimidazo[2,1-a]phthalazin-10-yl)benzamide]",1.72
7,"O=C(Nc1ccc2nc(-c3ccc(F)cc3)[nH]c2c1)c1ccccc1 [Compound 116, N-[2-(4-Fluorophenyl)-1H-benzimidazol-6-yl]benzamide]",1.48
8,"O=C(Nc1ccc2[nH]c(-c3ccccc3Cl)nc2c1)c1ccccc1N1CCOCC1 [Compound 61, N-[2-(2-Chlorophenyl)-1H-benzimidazol-6-yl]-2-(4-morpholinyl)benzamide]",2.18
9,"COc1ccccc1C(=O)Nc1ccc2nc(-c3ccccc3F)[nH]c2c1 [Compound 157, N-(2-(2-fluorophenyl)-1H-benzo[d]imidazol-6-yl)-2-methoxybenzamide]",1.61
10,"COc1ccccc1NC(=O)c1ccc2nc(-c3cccnc3)[nH]c2c1 [Compound 375, N-(2-methoxyphenyl)-2-(pyridin-3-yl)-1H-benzo[d]imidazole-6-carboxamide]",1.6
11,"O=C(Nc1ccc2[nH]c(-c3ccccc3)nc2c1)c1ccccc1 [Compound N4, N-(2-Phenyl-1H-benzimidazol-6-yl)benzamide]",1.61
12,"Fc1cccc(-c2nc3cc(Br)ccc3[nH]2)c1 [Compound 110, 6-Bromo-2-(3-fluorophenyl)-1H-benzimidazole]",1.43
13,"O=C(Nc1ccc2[nH]c(-c3cccc(F)c3)nc2c1)c1ccc(-n2cc[nH]c2=S)cc1 [Compound 57, N-[2-(3-fluorophenyl)-1H-benzimidazol-5-yl]-4-(2-sulfanylidene-3H-imidazol-1-yl)benzamide]",1.33
14,"O=C(Nc1ccc2[nH]c(-c3cc(F)ccc3F)nc2c1)c1cc(F)cc2nccnc12 [Compound 56, N-[2-(2,5-Difluorophenyl)-1H-benzimidazol-6-yl]-7-fluoro-5-quinoxalinecarboxamide]",1.76
15,"O=C(Nc1ccc2c(c1)nc1c3ccccc3c(-c3ccc(Cl)cc3)nn21)c1ccccc1 [Compound 43, N-[5-(4-Chloro-phenyl)benzimidazo[2,1-a]phthalazin-10-yl]benzamide]",1.3
16,"Cc1ccc(-c2nn3c4ccc(NC(=O)c5ccccc5I)cc4nc3c3ccccc23)cc1 [Compound 30, 2-lodo-N-[5-(4-methyl-phenyl)benzimidazo[2,1-a]phthalazin-10-yl]benzamide]",1.37
17,"O=C(Nc1ccc2nc(-c3ccccc3F)[nH]c2c1)c1ccccc1 [Compound 120, N-(2-(2-fluorophenyl)-1H-benzo[d]imidazol-6-yl)benzamide]",1.68
18,"O=C(Nc1ccc2[nH]c(-c3ccc(F)cc3)nc2c1)c1cc(F)cc2nccnc12 [Compound 54, 7-Fluoro-N-[2-(4-fluorophenyl)-1H-benzimidazol-6-yl]-5-quinoxalinecarboxamide]",1.71
19,"CSc1ccccc1C(=O)Nc1ccc2[nH]c(-c3cccc(F)c3)nc2c1 [Compound 52, N-[2-(3-Fluorophenyl)-1H-benzimidazol-6-yl]-2-(methylthio)benzamide]",1.91
20,"O=C(Nc1ccc2nc(-c3cccc(F)c3)[nH]c2c1)c1ccccc1 [Compound 117, N-(2-(3-fluorophenyl)-1H-benzo[d]imidazol-6-yl)benzamide]",1.93
21,"COc1ccccc1C(=O)Nc1ccc2nc(-c3ccc(F)cc3)[nH]c2c1 [Compound 145, N-(2-(4-fluorophenyl)-1H-benzo[d]imidazol-6-yl)-2-methoxybenzamide]",1.59
22,"Fc1ccccc1-c1nc2ccc(Br)cc2[nH]1 [Compound 136, 6-bromo-2-(2-fluorophenyl)-1H-Benzimidazole]",2.88
23,"O=C(Nc1ccc2[nH]c(-c3cccnc3)nc2c1)c1ccccc1 [Compound 107, N-[2-(3-Pyridinyl)-1H-benzimidazol-6-yl]benzamide]",1.33
24,"COc1ccccc1C(=O)Nc1ccc2nc(-c3cccc(F)c3)[nH]c2c1 [Compound 153, N-(2-(3-fluorophenyl)-1H-benzo[d]imidazol-6-yl)-2-methoxybenzamide]",1.38
25,"Cc1ccc(-c2nn3c4ccc(NC(=O)c5ccccc5)cc4nc3c3ccccc23)cc1 [Compound 31, N-[5-(4-Methylphenyl)benzimidazo [2,1-a]phthalazin-10-yl]benzamide]",1.72
26,"COc1cccc(F)c1C(=O)Nc1ccc2[nH]c(-c3ccc(F)cc3)nc2c1 [Compound 1, 2-Fluoro-N-[2-(4-fluorophenyl)-1H-benzimidazol-6-yl]-6-methoxybenzamide]",1.91
27,"Nc1ccc(C(=O)Nc2ccc(-c3nc4cc(NC(=O)c5ccc(N)cc5)c(Cl)cc4[nH]3)cc2)cc1 [Compound 67, 4-Amino-N-[4-[5-[(4-aminobenzoyl)amino]-6-chloro-1H-benzimidazol-2-yl]phenyl]benzamide]",1.84
28,"Fc1ccc(-c2nc3cc(Br)ccc3[nH]2)cc1 [Compound 111, 6-Bromo-2-(4-fluorophenyl)-1H-benzimidazole]",1.56
29,"COc1ccccc1NC(=O)c1ccc2nc(-c3ccccc3F)[nH]c2c1 [Compound 371, 2-(2-fluorophenyl)-N-(2-methoxyphenyl)-1H-benzo[d]imidazole-6-carboxamide]",1.84
30,"COc1ccccc1C(=O)Nc1ccc2nc(-c3cccnc3)[nH]c2c1 [Compound 124, 2-Methoxy-N-[2-(3-pyridinyl)-1H-benzimidazol-6-yl]benzamide]",3.5
